From patent publication US9464060B2, “Compounds” (TAKEDA PHARMACEUTICAL COMPANY LIMITED, priority 2013, dated 2016) come the findings set out here.

The structures appear in SMILES notation.

By IC50 is commonly meant the midpoint of a concentration-inhibition curve.

Assay [1] has as its target LPA5 receptor (Homo sapiens (Human), UniProt Q9H1C0). The assay can be described thus: In vitro LPA5 receptor assay (LPA-driven intracellular calcium release, FLIPR). In kind it is cell-based. As to conditions: RH7777 cells expressing human LPA5 receptors; LPA at EC90. The procedure:
In Vitro LPA5 Receptor Assay
Engagement of the LPA5 receptor by its ligand, oleoyl-L-α-lysophosphatidic acid (LPA), leads to the release of intracellular stores of calcium into the cytoplasm mediated through a Gq-driven increase in inositol triphosphate (IP3) levels. Gq is a heterotrimeric G protein subunit that activates phospholipase C.
The ability of test compounds to prevent LPA-driven intracellular release of stored calcium from RH7777 cells expressing human LPA5 receptors was assayed by stimulating the cells with LPA in the presence of various test compounds to measure the test compounds'antagonism, i.e. activity in vitro.
(§1) Approximately 10,000 cells in normal culture medium (Minimal Essential Media, 10% Foetal Calf Serum) were dispensed per assay well in a black clear bottom poly-D-lysine coated 384 well plate (Corning). Cells were allowed to settle for thirty minutes at room temperature before being incubated overnight at 37° C., 5% CO2. Sixteen to twenty hours after dispensing, the cells were loaded with a calcium-sensitive fluorescent dye by replacing the culture medium with assay buffer (1× Hanks buffered saline, 25 mM HEPES, 0.1% w/v fatty acid free BSA (bovine serum albumin), pH7.4) containing 1.25 mM probenecid and 1× Calcium 5 Reagent (Molecular Devices). Cells were incubated at 37° C. for one hour to allow for dye uptake.
To test for antagonist activity, test compounds at a final concentration range between 0.32 nM-10 μM (diluted in assay buffer) were added to the assay wells and allowed to incubate for fifteen minutes. […] Ligand-dependent changes in intracellular calcium levels were determined by measuring changes in fluorescence of the dye over […] following excitation over […].
For orientation: Calcium assays in cells follow changes in intracellular calcium, usually with a dye or a luminescent sensor.

For assay [2], the target named is human LPA1 receptors (Homo sapiens (Human), UniProt Q92633). The assay can be described thus: In vitro LPA1 receptor assay (LPA-driven intracellular calcium release, FLIPR). It is filed as cell-based. To be noted: RH7777 cells expressing human LPA1 receptors; LPA at EC80. As to the method:
In Vitro LPA1 Receptor Assay
Engagement of the LPA1 receptor by its ligand, oleoyl-L-α-lysophosphatidic acid (LPA), leads to the release of intracellular stores of calcium into the cytoplasm mediated through a Gq-driven increase in inositol triphosphate (IP3) levels. Gq is a heterotrimeric G protein subunit that activates phospholipase C.
The ability of test compounds to prevent LPA-driven intracellular release of stored calcium from RH7777 cells expressing human LPA1 receptors was assayed by stimulating the cells with LPA in the presence of various test compounds to measure the test compounds' antagonism, i.e. activity in vitro.
as §1, with “(Dulbecco's Modified Eagle” for “(Minimal Essential”, “collagen” for “poly-D-lysine”, “(Beckton Dickinson).” for “(Corning).”
To test for antagonist activity, test compounds at a final concentration range between 0.32 nM-10 μM (diluted in assay buffer) were added to the assay wells and allowed to incubate for twenty five minutes. […] Ligand-dependent changes in intracellular calcium levels were determined by measuring changes in fluorescence of the dye over […] following excitation over […].

Chain of LPA5 receptor (Q9H1C0 whole entry): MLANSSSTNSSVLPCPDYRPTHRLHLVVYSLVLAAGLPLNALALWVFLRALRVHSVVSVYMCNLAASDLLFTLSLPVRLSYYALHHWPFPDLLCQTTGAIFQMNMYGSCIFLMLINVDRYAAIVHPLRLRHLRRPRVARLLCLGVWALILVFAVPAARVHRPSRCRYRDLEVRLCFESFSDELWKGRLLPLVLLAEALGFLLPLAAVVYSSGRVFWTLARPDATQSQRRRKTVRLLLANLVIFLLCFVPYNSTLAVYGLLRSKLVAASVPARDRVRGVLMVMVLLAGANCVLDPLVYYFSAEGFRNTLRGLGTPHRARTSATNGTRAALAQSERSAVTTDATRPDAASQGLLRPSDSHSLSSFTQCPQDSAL
Chain of human LPA1 receptors (Q92633 whole entry): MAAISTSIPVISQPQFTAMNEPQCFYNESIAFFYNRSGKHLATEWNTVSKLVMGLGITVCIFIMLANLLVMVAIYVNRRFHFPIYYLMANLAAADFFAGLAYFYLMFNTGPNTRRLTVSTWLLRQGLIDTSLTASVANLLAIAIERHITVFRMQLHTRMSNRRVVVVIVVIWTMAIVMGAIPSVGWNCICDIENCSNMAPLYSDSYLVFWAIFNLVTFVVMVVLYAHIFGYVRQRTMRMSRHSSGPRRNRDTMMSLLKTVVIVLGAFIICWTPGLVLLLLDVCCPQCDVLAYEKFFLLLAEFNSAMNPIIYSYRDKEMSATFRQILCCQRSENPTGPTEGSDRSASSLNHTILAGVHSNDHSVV

For the molecule `CCN(Cc1ccc(C(=O)O)cc1)C(=O)c1ccc(Oc2ccccc2C)cc1` [Example 73, 4-((N-Ethyl-4-(o-tolyloxy)benzamido)methyl)benzoic acid], the IC50 stood at 890 nM in assay [1] and 120 nM in assay [2].
In the same order, the values of `O=C(O)c1ccc(CN(C[C@H](O)Cc2ccccc2)C(=O)c2ccc(Oc3ccccc3F)cc2)cc1` [Example 20, (R)-4-((4-(2-Fluorophenoxy)-N-(2-hydroxy-3-phenylpropyl)-benzamido)methyl)benzoic acid] are 40 nM and 12 nM.
Regarding `O=C(O)c1ccc(CN(CC2CC2)C(=O)c2ccc(Oc3ccccc3Cl)cc2)cc1` [Example 35, 4-((4-(2-Chlorophenoxy)-N-(cyclopropylmethyl)benzamido)-methyl)benzoic acid], the IC50 in assay [1] stood at 7 nM.
Turning to `COc1cccc(CN(Cc2ccc(C(=O)O)c(F)c2)C(=O)c2ccc(Oc3ccccc3F)cc2)c1` [Example 59, 2-Fluoro-4-((4-(2-fluorophenoxy)-N-(3-methoxybenzyl)benzamido)methyl)benzoic acid], the half-maximal inhibitory concentration (IC50) in assay [1] stood at 6 nM.
The same measure, in the same setting: then `O=C(O)c1ccc(CN(CC2CC2)C(=O)c2ccc(OCc3ccccc3F)cc2)cc1` [Example 51, 4-((N-(Cyclopropylmethyl)-4-((2-fluorobenzyl)oxy)benzamido)-methyl)benzoic acid], with 53 nM; and `O=C(O)c1ccc(CN(CCc2ccccc2)C(=O)c2ccc(Oc3cccc(Cl)c3)cc2)cc1` [Example 50, 4-((4-(3-Chlorophenoxy)-N-phenethylbenzamido)methyl)benzoic acid], with 3600 nM.
Still for that read-out and setting: next, `O=C(O)c1ccc(CN(CCC2CC2)C(=O)c2ccc(Oc3c(F)cccc3Cl)cc2)cc1` [Example 43, 4-((4-(2-Chloro-6-fluorophenoxy)-N-(2-cyclopropylethyl)-benzamido)methyl)benzoic acid]: 58 nM; `O=C(O)c1ccc(CN(Cc2ccccc2F)C(=O)c2ccc(Oc3ccccc3F)cc2)cc1` [Example 12, 4-((N-(2-Fluorobenzyl)-4-(2-fluorophenoxy)benzamido)-methyl)benzoic acid]: 9 nM.
The same measure, in the same setting: then `O=C(O)c1ccc(CN(CC2CCC2)C(=O)c2ccc(OCc3ccccc3F)cc2)cc1` [Example 52, 4-((N-(Cyclobutylmethyl)-4-((2-fluorobenzyl)oxy)benzamido)-methyl)benzoic acid], with 370 nM; and `O=C(O)c1ccc(CN(CCCc2ccccc2F)C(=O)c2ccc(Oc3ccccc3F)cc2)cc1` [Example 16, 4-((4-(2-Fluorophenoxy)-N-(3-(2-fluorophenyl)propyl)benzamido)methyl)benzoic acid], with 1 nM; and `O=C(O)c1ccc(CN(Cc2ccccc2)C(=O)c2ccc(Oc3c(F)cccc3F)cc2)cc1` [Example 39, 4-((N-Benzyl-4-(2,6-difluorophenoxy)benzamido)methyl)benzoic acid], with 11 nM.
`O=C(O)c1ccc(CN(CC2CCC2)C(=O)c2ccc(Oc3ccccc3F)cc2)cc1` [Example 6, 4-((N-(Cyclobutylmethyl)-4-(2-fluorophenoxy)benzamido)-methyl)benzoic acid]: in assay [1], the IC50 worked out at 24 nM.
Regarding `Cc1ccccc1Oc1ccc(C(=O)N(Cc2ccc(C(=O)O)cc2)CC2CCC2)cc1` [Example 23, 4-((N-(Cyclobutylmethyl)-4-(o-tolyloxy)benzamido)methyl)benzoic acid], in assay [1], the IC50 is 44 nM.
The same measure, in the same setting: then `COc1cccc(Oc2ccc(C(=O)N(CCc3ccccc3)Cc3ccc(C(=O)O)cc3)cc2)c1` [Example 48, 4-((4-(3-Methoxyphenoxy)-N-phenethylbenzamido)methyl)benzoic acid], with 3300 nM; and `O=C(O)c1ccc(CN(CCC2CCC2)C(=O)c2ccc(Oc3ccccc3F)cc2)cc1` [Example 10, 4-((N-(2-Cyclobutylethyl)-4-(2-fluorophenoxy)benzamido)-methyl)benzoic acid], with 48 nM.
The same measure, in the same setting: then `N#Cc1ccccc1Oc1ccc(C(=O)N(Cc2ccccc2)Cc2ccc(C(=O)O)cc2)cc1` [Example 27, 4-((N-Benzyl-4-(2-cyanophenoxy)benzamido)methyl)benzoic acid], with 200 nM.
On the same count and under the same terms, then `Cc1cccc(F)c1Oc1ccc(C(=O)N(Cc2ccc(C(=O)O)cc2)CC2CCC2)cc1` [Example 41, 4-((N-(Cyclobutylmethyl)-4-(2-fluoro-6-methylphenoxy)benzamido)methyl)benzoic acid], with 89 nM; and `O=C(O)c1ccc(CN(CC(F)F)C(=O)c2ccc(Oc3ccccc3F)cc2)cc1` [Example 2, 4-((N-(2,2-Difluoroethyl)-4-(2-fluorophenoxy)benzamido)-methyl)benzoic acid], with 690 nM; and `COc1ccc(Oc2ccc(C(=O)N(CCc3ccccc3)Cc3ccc(C(=O)O)cc3)cc2)cc1` [Example 49, 4-((4-(4-Methoxyphenoxy)-N-phenethylbenzamido)methyl)benzol acid], with 4600 nM.
Consider `O=C(O)c1ccc(CN(Cc2ccccc2)C(=O)C2CCC(Oc3ccccc3F)CC2)cc1` (stereo not drawn) [Example 55, 4-((N-Benzyl-4-(2-fluorophenoxy)cyclohexanecarboxamido)-methyl)benzoic acid], for which, in assay [1], the IC50 stood at 690 nM.
As to `COC1CC(CN(Cc2ccc(C(=O)O)cc2)C(=O)c2ccc(Oc3ccccc3F)cc2)C1` (stereo not drawn) [Example 7, 4-((4-(2-Fluorophenoxy)-N-((3-methoxycyclobutyl)methyl)-benzamido)methyl)benzoic acid], the IC50 in assay [1] was 31 nM.
On to `CCOc1ccccc1Oc1ccc(C(=O)N(Cc2ccc(C(=O)O)cc2)CC2CC2)cc1` [Example 34, 4-((N-(Cyclopropylmethyl)-4-(2-ethoxyphenoxy)-benzamido)methyl)benzoic acid], for which, in assay [1], the IC50 was 460 nM.
In the case of `COc1ccccc1O[C@H]1CC[C@H](C(=O)N(Cc2ccccc2)Cc2ccc(C(=O)O)cc2)CC1` [Example 56, trans-4-((N-Benzyl-4-(2-methoxyphenoxy)cyclohexanecarboxamido)methyl)benzoic acid], the IC50 in assay [1] is 180 nM.
On the same count and under the same terms, then `O=C(O)c1ccc(CN(Cc2ccccc2)C(=O)c2ccc(OCc3ccccc3F)cc2)cc1` [Example 53, 4-((N-Benzyl-4-((2-fluorobenzyl)oxy)benzamido)methyl)benzoic acid], with 58 nM; and `CCN(Cc1ccc(C(=O)O)cc1)C(=O)c1ccc(Oc2ccccc2F)cc1` [Example 1, 4-((N-Ethyl-4-(2-fluorophenoxy)benzamido)methyl)benzoic acid], with 840 nM; and `O=C(O)c1ccc(CN(CCc2ccccc2)C(=O)c2ccc(Oc3ccccc3C(F)(F)F)cc2)cc1` [Example 26, 4-((N-Phenethyl-4-(2-(trifluoromethyl)phenoxy)benzamido)-methyl)benzoic acid], with 260 nM.
On the same count and under the same terms, then `O=C(O)c1ccc(CN(CCc2ccccc2)C(=O)c2ccc(Oc3ccccc3F)cc2)cc1` [Example 15, 4-((4-(2-Fluorophenoxy)-N-phenethylbenzamido)methyl)benzoic acid], with 120 nM.
The same measure, in the same setting: then `O=C(O)c1ccc(CN(Cc2ccccc2)C(=O)c2ccc(Oc3c(F)cccc3Cl)cc2)cc1` [Example 44, 4-((N-Benzyl-4-(2-chloro-6-fluorophenoxy)benzamido)-methyl)benzoic acid], with 11 nM; and `O=C(O)c1ccc(CN(CCCCc2ccccc2)C(=O)c2ccc(Oc3ccccc3F)cc2)cc1` [Example 21, 4-((4-(2-Fluorophenoxy)-N-(4-phenylbutyl)-benzamido)methyl)benzoic acid], with 11 nM.
Take `O=C(O)c1ccc(CN(CC2CC2)C(=O)c2ccc(Oc3c(F)cccc3Cl)cc2)cc1` [Example 42, 4-((4-(2-Chloro-6-fluorophenoxy)-N-(cyclopropylmethyl)-benzamido)methyl)benzoic acid]: the IC50 in assay [1] amounted to 17 nM.
The same measure, in the same setting: then `O=C(O)c1ccc(CN(CCC2CC2)C(=O)c2ccc(Oc3ccccc3F)cc2)cc1` [Example 9, 4-((N-(2-Cyclopropylethyl)-4-(2-fluorophenoxy)benzamido)-methyl)benzoic acid], with 15 nM.
